Where a SMILES comes first, the peptide text is derived from it. [ ]: non-standard residue; d: D form. Dap = NC[C@H](N)C(=O)O

Experiment [1] is described as follows: Scavenging assay of 2-nonenal. It is filed as biochemical. The conditions noted are these: 2 mM peptide in 10 mM PBS mixed with equal volume of 100 μM aldehyde in acetonitrile, 37° C., 24 h, HPLC of remaining aldehyde. How it is done:
Scavenging assay of 2-nonenal.
A solution was prepared from peptides in a 10 mM PBS buffer at a concentration of 2 mM, as well as a solution of the aldehyde in acetonitrile at a concentration of 100 μM. Equal volumes of peptide solutions and aldehyde were mixed and left to react at 37° C. for 24 h. The scavenging efficiency of the RCS was measured by HPLC analysis of the remaining aldehyde content in the reaction mixture.

The nature of experiment [2]: Scavenging assay of 4-hydroxy-2-nonenal. Type of experiment: biochemical. As to conditions: 2 mM peptide in 10 mM PBS mixed with equal volume of 100 μM aldehyde in acetonitrile, 37° C., 24 h, HPLC of remaining aldehyde. How it is done:
Scavenging assay of 4-hydroxy-2-nonenal.
A solution was prepared from peptides in a 10 mM PBS buffer at a concentration of 2 mM, as well as a solution of the aldehyde in acetonitrile at a concentration of 100 μM. Equal volumes of peptide solutions and aldehyde were mixed and were left to react at 37° C. for 24 h. The scavenging efficiency of the RCS was measured by HPLC analysis of the remaining aldehyde content in the reaction mixture.

For experiment [3], the system named is Primary cultures of human melanocytes. Kind of experiment: Protective capacity against DNA degradation (UVA, alkaline comet assay). Type of experiment: cell-based. The conditions noted are these: 1.0 μg/mL for 2 h at 37° C., then UVA 1.0 J/cm^2, alkaline comet assay. How it is done:
Test of the Protective Capacity of DNA Degradation
Primary cultures of human melanocytes (10^5 cells/plate) were treated with 1.0 μg/mL of H-L-Dpr-D-Ala-L-Pro-L-His-OH for 2 h at 37° C. Subsequently, the cultures were irradiated with UVA at 1.0 J/cm^2 for no longer than 3min at 4° C. and the extent of the damage induced to DNA was determined by alkaline comet assay [De Meo M., Laget M., Castegnaro M. and Dumenil G. (1991) “Genotoxic activity of potassium permanganate in acidic solutions” Mutat. Res 260:295-306].

Experiment [4] deals with Primary cultures of human fibroblasts. Kind of experiment: Repair capacity of DNA degradation (UVB, alkaline comet assay). It is filed as cell-based. The conditions noted are these: UVB 0.4 J/cm^2 30 s, versus intrinsic repair efficiency of the cells. The text has this:
Testing the Repair Capacity of DNA Degradation
Primary cultures of human fibroblasts (10^5 cells/plate) were irradiated to 0.4 J/cm^2 UVB for 30 seconds. […]

The test system of the next experiment is human keratinocytes. The experiment can be described thus: Photoprotection efficiency in cultured human keratinocytes (solar simulation lamp, Neutral Red viability). Type of experiment: cell-based. The conditions noted are these: 1 mg/ml peptide, viability compared with irradiated and non-irradiated control cells. As to the method: Testing the photoprotection efficiency of H-L-Dpr-D-Ala-L-Pro-L-His-OH, H-L-Dpr-D-Ala-L-Ala-L-His-OH and H-L-Dp- L-Ala-L-Pro-L-His-OH in cultured human keratinocytes.
Human keratinocytes were maintained in culture for 24 h on 96 well plates to form monolayers and the cells were pre-incubated in the dark with 1 mg/ml of H-L-Dpr-D-Ala-L-Pro-L-His-OH, H-L-Dpr-D-Ala-L-Ala-L-His-OH, H-L-Dpr-L-Ala-L-Pro-L-His-OH or phosphate buffered saline (control) for one hour at 37° C. and humidified air with 5% CO2. Subsequently, cells were irradiated with a solar simulation lamp (with an energy of 37 J/cm^2 at room temperature for 150 min in the case of H-L-Dpr-D-Ala-L-Pro-L-His-OH). A control plate was kept in the dark during the same time at room temperature. After the period of irradiation, the cell medium was replaced by a fresh medium and the cells were incubated for an additional 24 h.
Cell viability was determined by the Neutral Red dye, measuring the absorbance at 540 nm in a spectrophotometer.
The photoprotection efficiency was determined by comparing the viability obtained in cells treated with H-L-Dpr-D-Ala-L-Pro-L-His-OH, H-L-Dpr-D-Ala-L-Ala-L-His-OH or H-L-Dpr-L-Ala-L-Pro-L-His-OH on the response of irradiated and non-irradiated control cells.

Experiment [5] can be described thus: Reduction of the odor emitted by aldehyde 2-nonenal (sniff test). As to conditions: 0.05% peptide in phosphate buffer 10 mM pH 7-7.5 added to equal volume of 0.00089% 2-nonenal in acetonitrile, odor at time zero and 24 h, panel of 3 experts. How it is done: Reduction of the Odor Emitted by Aldehyde 2-nonenal
We evaluated the reduction of the odor given off by aldehyde 2-nonenal after the addition of a solution containing 0.05% of H-L-Dpr-L-Ala-L-Ala-L-His-OH through an olfactory test (“sniff test”) conducted by a panel of 3 independent experts.
We prepared a solution of 2-nonenal at 0.00089% in acetonitrile to which was added an equal volume of phosphate buffer 10 mM pH 7-7.5 or H-L-Dpr-L-Ala-L-Ala-L-His-OH to 0.05% in phosphate buffer 10 mM pH 7-7.5. We evaluated the odor intensity given off at time zero and 24 h after creating the mixture of aldehyde and peptide, performing the measurements in a room heated to 24° C. and with controlled humidity at 60% and statistically analyzed the values obtained using the Wilcoxon Matched Paired test.

As for `NCCC(=O)N[C@@H](Cc1cnc[nH]1)C(=O)O` [Carnosine, carnosine, reference compound], the “Scavenging % of NE aldehyde” value in experiment [1] is given as 70.3%. The “Scavenging % of HNE aldehyde” value in experiment [2] was found to be 89.4%. With `NCCCC[C@H](NC(=O)[C@H](Cc1c[nH]cn1)NC(=O)CN)C(=O)O` [GHK, glycyl-histidyl-lysine, reference compound] (H-Gly-His-Lys-OH), the “Scavenging % of NE aldehyde” value in experiment [1] is 24.7%. For the same molecule, the “Scavenging % of HNE aldehyde” value in experiment [2] was found to be 82.1%.

With `C[C@@H](NC(=O)[C@@H](N)CN)C(=O)N1CCC[C@H]1C(=O)N[C@@H](Cc1c[nH]cn1)C(=O)O` [H-L-Dpr-D-Ala-L-Pro-L-His-OH] (H-[Dap][dA]PH-OH), in experiment [1], the “Scavenging % of NE aldehyde” value is recorded as 97.0%. The “PROTECTIVE EFFICIENCY against DNA degradation” value in experiment [3] amounted to 36.1%. Moreover, the figures for the “REPAIR EFFICIENCY of DNA degradation” value in experiment [4] (then 0.25 μg/mL for 3 h at 37° C.) and in experiment [4] (then 0.5 μg/mL for 3 h at 37° C.) were 120% and 170%, respectively. For the same molecule, the “Scavenging % of HNE aldehyde” value in experiment [2] is reported as 98.0%. Also, the “PHOTOPROTECTION EFFICIENCY” value with human keratinocytes is recorded as 92.0%. As to `C[C@H](NC(=O)[C@@H](N)CN)C(=O)N1CCC[C@H]1C(=O)N[C@@H](Cc1c[nH]cn1)C(=O)O` [H-L-Dpr-L-Ala-L-Pro-L-His-OH] (H-[Dap]APH-OH), in experiment [1], the “Scavenging % of NE aldehyde” value came to 76.7%. In addition, the “Scavenging % of HNE aldehyde” value in experiment [2] was 93.9%. In the experiment with human keratinocytes, the “PHOTOPROTECTION EFFICIENCY” value is 56.8%. On to H-L-Dpr-D-AIa-L-Asn-L-His-NH2, for which the “Scavenging % of NE aldehyde” value in experiment [1] was 98.9%. Regarding H-L-Dpr-D-Ala-L-Ala-L-His-NH2, the “Scavenging % of NE aldehyde” value in experiment [1] worked out at 98.2%. Moreover, the “Scavenging % of HNE aldehyde” value in experiment [2] was determined as 97.7%. Taken in the same sequence, the figures for H-L-Dpr-D-Ala-L-Asp-L-His-OH were 95.4% and 98.8%. Regarding H-L-Dpr-D-Ala-L-Glu-L-His-NH2, in experiment [1], the “Scavenging % of NE aldehyde” value was found to be 95.2%. Further, in experiment [2], the “Scavenging % of HNE aldehyde” value is listed as 97.7%.

With H-L-Dpr-D-Ala-L-Glu-L-His-OH, the “Scavenging % of NE aldehyde” value in experiment [1] came to 93.2%.

Take H-L-Dpr-D-Ala-L-Pro-L-His-NH2: the “Scavenging % of NE aldehyde” value in experiment [1] came to 98.1%. Moreover, the “Scavenging % of HNE aldehyde” value in experiment [2] came to 98.3%. Taken in the same sequence, the figures for H-L-Dpr-L-Ala-D-Asp-L-His-OH were 83.1% and 94.1%. As for H-L-Dpr-L-Ala-L-Ala-L-His-NH2, in experiment [1], the “Scavenging % of NE aldehyde” value was determined as 94.1%. The “Scavenging % of HNE aldehyde” value in experiment [2] is given as 96.0%. On to H-L-Dpr-L-Ala-L-Ala-L-His-OH, for which the “reduction of the odor given off by 2-nonenal” value in experiment [5] was found to be 15.6%. In addition, the “Scavenging % of NE aldehyde” value in experiment [1] worked out at 74.6%. As to H-L-Dpr-L-Ala-L-Asn-L-His-NH2, in experiment [1], the “Scavenging % of NE aldehyde” value is recorded as 95.3%. Still for that read-out and setting: then H-L-Dpr-L-Ala-L-Asn-L-His-OH, with 73.1%. For H-L-Dpr-L-Ala-L-Asp-D-His-OH, in experiment [1], the “Scavenging % of NE aldehyde” value was determined as 66.5%. In addition, the “Scavenging % of HNE aldehyde” value in experiment [2] came out at 86.3%. Taken in the same sequence, the figures for H-L-Dpr-L-Ala-L-Asp-L-His-NH2 were 94.5% and 97.5%. Take H-L-Dpr-L-Ala-L-Asp-L-His-OH: the “Scavenging % of HNE aldehyde” value in experiment [2] is 97.6%. As to H-L-Dpr-L-Ala-L-Glu-L-His-NH2, in experiment [1], the “Scavenging % of NE aldehyde” value came to 92.6%. As for H-L-Dpr-L-Ala-L-Glu-L-His-OH, the “Scavenging % of NE aldehyde” value in experiment [1] amounted to 75.6%. As for H-L-Dpr-L-Ala-L-Pro-L-His-NH2, the “Scavenging % of NE aldehyde” value in experiment [1] worked out at 88.7%. In addition, the “Scavenging % of HNE aldehyde” value in experiment [2] stood at 96.3%.

Values taken from US8710010B2, “Peptides useful in the treatment and/or care of skin, mucous membranes, scalp and/or hair and their use in cosmetic or pharmaceutical compositions” (Lipotec, S.A., priority 2008, dated 2014).
